Reference: US11077090B2, “Compounds and compositions and uses thereof” (Sunovion Pharmaceuticals Inc., priority 2016, dated 2021)
Like-named read-outs stand apart in the source and are kept apart here.

System: compound-treated mice
Assay: Neuropharmacological assay (SmartCube): behavioral activity signature and minimal effective dose
Assay type: in vivo
Details: for minimal effective dose: Mus musculus, ip; for AD: ADHD (probability of activity signature) / AG: analgesic (probability of activity signature) / AX: anxiolytic (probability of activity signature) / CE: cognitive enhancer (probability of activity signature) / DP: anti-depressant (probability of activity signature) / MS: mood stabilizer (probability of activity signature) / PS: anti-psychotic (probability of activity signature) / SD: sedative hypnotic (probability of activity signature) / UN: uncharacterized CNS activity (probability of activity signature): i.p. 15 min before test, most efficacious dose(s)
Method in brief: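 Video-recorded behavior is compared algorithmically against a reference-compound database, yielding class probabilities (best dose reported). Compounds given i.p. in NMP/PEG/propylene glycol 15 min pre-test at 3 doses; potency as MED, the dose (mpk, range usually 0.3–30) reaching ≥50% total activity.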

[1] = MED = dose having 50% or more total activity, read-out: Potency: minimal effective dose (MED)
[2] = MED = dose having 50% or more total activity, read-out: Potency: minimal effective dose (MED), binned

| Structure (SMILES) | minimal effective dose [1] | AD: ADHD (probability of activity signature) | AG: analgesic (probability of activity signature) | AX: anxiolytic (probability of activity signature) | CE: cognitive enhancer (probability of activity signature) | DP: anti-depressant (probability of activity signature) | MS: mood stabilizer (probability of activity signature) | PS: anti-psychotic (probability of activity signature) | SD: sedative hypnotic (probability of activity signature) | UN: uncharacterized CNS activity (probability of activity signature) | minimal effective dose [2] | Potency: minimal effective dose (MED), binned (MED = dose having 50% or more total activity) |
| --- | --- | --- | --- | --- | --- | --- | --- | --- | --- | --- | --- | --- |
| Cc1ccc2c(c1)[C@@H](N)CCOC2 (single isomer, unassigned) [Example 116] | 3 to 10 mg/kg | + (LOQ ≤ + <5%) | ++ (5% ≤ ++ <25%) | ++ (5% ≤ ++ <25%) | ++ (5% ≤ ++ <25%) | ++ (5% ≤ ++ <25%) | + (LOQ ≤ + <5%) | ++ (5% ≤ ++ <25%) | +++ (25% ≤ +++ <50%) | +++ (25% ≤ +++ <50%) | – | – |
| Cc1ccc2c(c1C)C(N)COC2.Cl (stereo not drawn) [Example 42, 5,6-Dimethylisochroman-4-amine hydrochloride] | < 3 mg/kg | + (LOQ ≤ + <5%) | +++ (25% ≤ +++ <50%) | ++ (5% ≤ ++ <25%) | ++ (5% ≤ ++ <25%) | ++ (5% ≤ ++ <25%) | + (LOQ ≤ + <5%) | +++ (25% ≤ +++ <50%) | ++ (5% ≤ ++ <25%) | +++ (25% ≤ +++ <50%) | – | – |
| CC[C@@H]1OCc2ccccc2[C@@H]1NC.Cl [Example 258] | – | + (LOQ ≤ + <5%) | + (LOQ ≤ + <5%) | + (LOQ ≤ + <5%) | + (LOQ ≤ + <5%) | ++ (5% ≤ ++ <25%) | ++ (5% ≤ ++ <25%) | + (LOQ ≤ + <5%) | ++ (5% ≤ ++ <25%) | + (LOQ ≤ + <5%) | 3 to 10 mg/kg | – |
| Cc1cccc2c1C(N)CCOC2.Cl (stereo not drawn) [Example 39] | 3 to 10 mg/kg | + (LOQ ≤ + <5%) | ++ (5% ≤ ++ <25%) | +++ (25% ≤ +++ <50%) | ++ (5% ≤ ++ <25%) | ++ (5% ≤ ++ <25%) | + (LOQ ≤ + <5%) | + (LOQ ≤ + <5%) | + (LOQ ≤ + <5%) | ++++ (50% ≤ ++++) | – | – |
| CN[C@H]1COCc2cccc(C)c21 (single isomer, unassigned) [Example 138] | 3 to 10 mg/kg | + (LOQ ≤ + <5%) | ++ (5% ≤ ++ <25%) | ++ (5% ≤ ++ <25%) | ++ (5% ≤ ++ <25%) | ++ (5% ≤ ++ <25%) | + (LOQ ≤ + <5%) | ++ (5% ≤ ++ <25%) | ++ (5% ≤ ++ <25%) | +++ (25% ≤ +++ <50%) | – | – |
| Cl.NC1COCc2ccc3c(c21)C1CCC3C1 (single isomer, unassigned) [Example 164] | – | + (LOQ ≤ + <5%) | ++ (5% ≤ ++ <25%) | +++ (25% ≤ +++ <50%) | ++ (5% ≤ ++ <25%) | + (LOQ ≤ + <5%) | + (LOQ ≤ + <5%) | ++ (5% ≤ ++ <25%) | ++ (5% ≤ ++ <25%) | +++ (25% ≤ +++ <50%) | – | B (>3 to 10 mpk) |
| C[C@H]1OCc2ccccc2[C@@H]1N (single isomer, unassigned) [Example 151] | 3 to 10 mg/kg | + (LOQ ≤ + <5%) | ++ (5% ≤ ++ <25%) | +++ (25% ≤ +++ <50%) | ++ (5% ≤ ++ <25%) | ++ (5% ≤ ++ <25%) | + (LOQ ≤ + <5%) | ++ (5% ≤ ++ <25%) | ++ (5% ≤ ++ <25%) | ++ (5% ≤ ++ <25%) | – | – |
| CCCN[C@H]1c2ccccc2CO[C@@H]1C.Cl [Example 268] | – | ++ (5% ≤ ++ <25%) | + (LOQ ≤ + <5%) | ++ (5% ≤ ++ <25%) | + (LOQ ≤ + <5%) | + (LOQ ≤ + <5%) | ++ (5% ≤ ++ <25%) | +++ (25% ≤ +++ <50%) | ++ (5% ≤ ++ <25%) | ++ (5% ≤ ++ <25%) | 3 to 10 mg/kg | – |
| COc1ccc2c(c1)COCC2N.Cl (stereo not drawn) [Example 14] | 10 to 30 mg/kg | + (LOQ ≤ + <5%) | ++ (5% ≤ ++ <25%) | ++ (5% ≤ ++ <25%) | + (LOQ ≤ + <5%) | ++ (5% ≤ ++ <25%) | + (LOQ ≤ + <5%) | + (LOQ ≤ + <5%) | + (LOQ ≤ + <5%) | ++++ (50% ≤ ++++) | – | – |
| Cl.NC1COCc2cccc(Cl)c21 (stereo not drawn) [Example 28] | 3 to 10 mg/kg | + (LOQ ≤ + <5%) | ++ (5% ≤ ++ <25%) | ++ (5% ≤ ++ <25%) | ++ (5% ≤ ++ <25%) | ++ (5% ≤ ++ <25%) | + (LOQ ≤ + <5%) | ++ (5% ≤ ++ <25%) | + (LOQ ≤ + <5%) | +++ (25% ≤ +++ <50%) | – | – |
| N[C@H]1COCc2c(Cl)cccc21 [Example 132] | < 3 mg/kg | + (LOQ ≤ + <5%) | ++ (5% ≤ ++ <25%) | +++ (25% ≤ +++ <50%) | +++ (25% ≤ +++ <50%) | ++ (5% ≤ ++ <25%) | + (LOQ ≤ + <5%) | ++ (5% ≤ ++ <25%) | ++ (5% ≤ ++ <25%) | +++ (25% ≤ +++ <50%) | – | – |
| Cc1cccc2c1CO[C@@H](C)[C@H]2N.Cl [Example 97] | 3 to 10 mg/kg | + (LOQ ≤ + <5%) | + (LOQ ≤ + <5%) | ++ (5% ≤ ++ <25%) | ++ (5% ≤ ++ <25%) | + (LOQ ≤ + <5%) | + (LOQ ≤ + <5%) | ++ (5% ≤ ++ <25%) | ++ (5% ≤ ++ <25%) | ++++ (50% ≤ ++++) | – | – |
| CC[C@@H]1OCc2ccccc2[C@@H]1N(C)C.Cl (single isomer, unassigned) [Example 260] | – | ++ (5% ≤ ++ <25%) | + (LOQ ≤ + <5%) | + (LOQ ≤ + <5%) | + (LOQ ≤ + <5%) | + (LOQ ≤ + <5%) | ++ (5% ≤ ++ <25%) | + (LOQ ≤ + <5%) | ++ (5% ≤ ++ <25%) | + (LOQ ≤ + <5%) | 3 to 10 mg/kg | – |
| CCCN[C@H]1COCc2ccccc21.Cl [Example 265] | – | + (LOQ ≤ + <5%) | + (LOQ ≤ + <5%) | + (LOQ ≤ + <5%) | + (LOQ ≤ + <5%) | ++ (5% ≤ ++ <25%) | + (LOQ ≤ + <5%) | + (LOQ ≤ + <5%) | ++ (5% ≤ ++ <25%) | + (LOQ ≤ + <5%) | 3 to 10 mg/kg | – |
| C[C@H]1OCc2ccc3c(c2[C@@H]1N)CCCO3.Cl [Example 249] | – | + (LOQ ≤ + <5%) | ++ (5% ≤ ++ <25%) | ++ (5% ≤ ++ <25%) | ++ (5% ≤ ++ <25%) | + (LOQ ≤ + <5%) | + (LOQ ≤ + <5%) | ++ (5% ≤ ++ <25%) | + (LOQ ≤ + <5%) | +++ (25% ≤ +++ <50%) | 3 to 10 mg/kg | – |
